Measurements reported in patent US20180250306A1, “ALDEHYDE CONJUGATES AND USES THEREOF” (ALDEYRA THERAPEUTICS, INC., priority 2015, published 2018).

Legend:
[1] = test system: cardiac fibroblasts; experiment: Fibroblast activation to myofibroblast phenotype, immunostaining for α-SMA and vimentin; assay type: cell-based, neonatal rats
Description: (§1) Thirty hearts from neonatal rats were minced and digested (Neonatal Cardiomyocyte Isolation System, LK003303, Worthington). After tissue digestion and cell dissociation, cell suspensions were plated into 35 mm dishes or onto coverslips in wells of 24-well plates. Serum-free DMEM was added to the cell suspensions and the cells allowed to adhere for 2 hrs. After two hours, the cell suspension was removed and the adherent cells were fed with DMEM containing 10% fetal bovine serum (FBS). Cells were maintained in DMEM+10% FBS for 24 hours before treatments. Treatment duration was 24 hours.
(§2) Cell samples were divided in to 2 groups, stimulated with H2O2 or not stimulated with H2O2. […] The cells that were treated with H2O2 contained a final concentration of 0.001% in the wells. Drug was dissolved in 9.5% Captisol®, to a stock concentration of 5 mg/ml. […] Cells were treated for 24 hours then either fixed for immunostaining or collected as lysates for Western Blot analysis.
After 24 hours of treatment, cells on cover slips were rinsed twice with PBS, fixed in 1% paraformaldehyde for 10 minutes then rinsed in PBS for immunostaining. Cells were permeabilized for 18 minutes in 0.1% Triton-X 100 in PBS, then rinsed three times in PBS for 15 minutes each. Following the rinses, cover slips were incubated in Image-IT FX Signal Enhancer (Invitrogen) to reduce background intensities in images. Subsequently, cells were washed three times 15 min with PBS, followed by one hour of blocking in 10% Normal Goat Serum Cells and 0.05% Triton-X 100, and then incubated overnight in 4° C. with primary antibodies diluted in PBS with 2% Normal Goat Serum and 0.05% Triton-X 100. Antibodies were applied at the following concentrations: Alpha-Smooth Muscle Actin 1:200 (V5228, Sigma-Aldrich), Vimentin 1:200 (V6630, Sigma-Aldrich) and NFκB 1:200 (C-20, Santa Cruz Biotech). Following overnight incubation, cover slips were brought to room temperature over 10 minutes and then rinsed in PBS for 15 min. Following 1 hour of incubation in the dark with secondary antibodies (1:100 in PBS, A-21127 and A-21136, Life Technologies), cover slips were rinsed 3 times for 15 min in PBS, incubated in the dark with DAPI (Invitrogen, 1:600) for 10 minutes, and then rinsed for 3 times in PBS. Cover slips were then mounted upside down on glass slides and examined using a Leica SP8 confocal microscope equipped with a 10× air lens. Images were taken as described and split into channels. Each channel was reviewed by eye to determine if NFκB was in the nucleus or in the cytosol.

[2] = Preliminary single dose i.p. pharmacokinetics of NS2 and NS2-SSA adduct formation in wild type mice; assay type: in vivo, wild type C57B16 mice
Description: Mice were 41-46 days old on the day of treatment, and groups (n=3) were balanced for age, gender and starting weight (18±3 g). […] The results of this study informed the design of a subsequent 8-hour single dose study to measure additional biochemical outcomes (GHB and related metabolites) in both SSADH deficient mice and wild type littermates.
A preliminary assessment of single dose, i.p. pharmacokinetics (PK) was conducted in wild type C57B16 mice. Mice were 41-46 days old at the time of dosing. […] Three mice per timepoint were used for pharmacokinetic analysis. The study design is outlined in Table 6 below.
Homogenates (100 μL) were protein-precipitated with cold acetonitrile containing 0.1% formic acid (900 μL). Serum samples (25 μL) were protein-precipitated with 425 μL of cold acetonitrile containing 0.1% formic acid. Samples were centrifuged at 2,500×g then supernatant was transferred to a clean tube and dried under a constant heated flow of nitrogen (50° C.). Samples were reconstituted in 100 μL of mobile phase A (water with 0.1% formic acid, LC-MS/MS grade reagents).
These studies were performed only in wild-type C57B16 mice (n=21). […] The mice ranged in age from 41-46 days of age.

[3] = test system: IL-1β; experiment: Western Blot of IL-1β levels in cardiac fibroblasts; assay type: cell-based, neonatal rats; conditions: p<0.01
Description: as §1, §2
Whole cell lysates were used for Western blotting; nuclear and cytosolic fractions were not prepared. DMEM from cells plated in 35 mm plates was removed, the cells rinsed quickly in PBS, then incubated in 500 ul cold RIPA buffer for 20-30 minutes at 4° C. under gentle rocking. Following RIPA incubation, cells were scraped from the dish using cell scrapers and frozen at −80° C. overnight to increase cell lysing. […]

[4] = Aldehyde adduct formation over time (product HPLC peak)
Description: It is not possible to conclude if this is the result of poor dissociation (from cyclodextrin) or poor interaction with the aldehyde. Best fit lines over this period give excellent fit to data. […] It can be used to relatively rank each of the samples examined, including NS2. The data were first evaluated over a 7 h time window.

[5] = wild type mice, single dose 10 mg/kg i.p.
[6] = rank from most effective (1) to least

Compound: CC(C)(O)c1nc2ccc(Cl)cc2cc1N [NS2, 2-(3-amino-6-chloroquinolin-2-yl)propan-2-ol]
- cell morphology ([1]; 1 mM, cells stimulated with H2O2 or not): morphology of a non-activated fibroblast
- α-SMA production and morphology change (immunostaining) ([1]; H2O2 stimulated cells, 10 μM, 24 hours): little effect
- α-SMA production (immunostaining) ([1]; H2O2 stimulated cells, 100 μM, 24 hours): clear inhibition
- cell shape of activated myofibroblasts ([1]; unstimulated cells, 10 μM): does not change
- α-SMA production (immunostaining) ([1]; unstimulated cells, 10 μM, 24 hours): little effect
- cell morphology ([1]; unstimulated cells, 100 μM): morphology more like that of a non-activated fibroblast
- α-SMA production (immunostaining) ([1]; unstimulated cells, 100 μM, 24 hours): inhibited the production of α-SMA
- α-SMA production (immunostaining) ([1]; unstimulated cells, 1 mM, 24 hours): appeared to limit the production of α-SMA
- concentration at 24 h ([2]; both sexes, C57B16 (wild type), mouse, serum, ip, wild type mice, single dose 10 mg/kg i.p., by 24 hours): < 50 nM
- tolerability ([2]; mouse, in vivo, ip, 10 mg/kg): tolerated
- brain penetration of NS2 [2, 5]: good brain penetration
- order of NS2 pharmacokinetics [2, 5]: first-order pharmacokinetics
- peak serum concentration of NS2 [2, 5]: 43.1 ± 15.4 µM
- time to peak serum concentration of NS2 [2, 5]: 0.5 h
- peak concentration of NS2 in brain ([2]; wild type mice, single dose 10 mg/kg i.p., brain): 52.4±22.9
- peak concentration of NS2 in liver ([2]; wild type mice, single dose 10 mg/kg i.p., liver): 116±3.1
- IL-1β levels (Western Blot) ([3]; H2O2-stimulated cells): significant decreases
- IL-1β levels (Western Blot) ([3]; unstimulated cells): significant decreases
- Gradient of product HPLC peak increase (rate of adduct formation) ([4]; 7 h time window): (Gradient 2.22,
- Gradient of product HPLC peak increase (rate of adduct formation) ([4]; 23 h time window): (Gradient 1.33,
- Formation of Product, ranking, 7 Hours [4, 6]: 2
- Formation of Product, ranking, 23 Hours [4, 6]: 2
